{"source": "PubChem BioAssay (NCI)", "test_in_all_cases": "NCI tumour cell line growth inhibition, 48 h", "key": {"SN12K1 renal": {"tested_on": "SN12K1 renal"}, "P388/ADR leukemia": {"tested_on": "P388/ADR leukemia"}, "SW-620 colon": {"tested_on": "SW-620 colon"}, "HL-60(TB) leukemia": {"tested_on": "HL-60(TB) leukemia"}, "COLO 205 colon": {"tested_on": "COLO 205 colon"}, "OVCAR-4 ovarian": {"tested_on": "OVCAR-4 ovarian"}, "DLD-1 colon": {"tested_on": "DLD-1 colon"}, "NCI-H23 lung": {"tested_on": "NCI-H23 lung"}, "CCRF-CEM leukemia": {"tested_on": "CCRF-CEM leukemia"}, "RPMI-8226 leukemia": {"tested_on": "RPMI-8226 leukemia"}, "UACC-62 melanoma": {"tested_on": "UACC-62 melanoma"}, "SNB-75 CNS": {"tested_on": "SNB-75 CNS"}, "NCI-H460 lung": {"tested_on": "NCI-H460 lung"}, "SNB-78 CNS": {"tested_on": "SNB-78 CNS"}, "HOP-62 NSCLC": {"tested_on": "HOP-62 NSCLC"}, "UACC-257 melanoma": {"tested_on": "UACC-257 melanoma"}, "A549 NSCLC": {"tested_on": "A549 NSCLC"}, "XF 498 CNS": {"tested_on": "XF 498 CNS"}, "DMS 273 small cell lung": {"tested_on": "DMS 273 small cell lung"}, "EKVX NSCLC": {"tested_on": "EKVX NSCLC"}, "P388 leukemia": {"tested_on": "P388 leukemia"}, "SN12C renal": {"tested_on": "SN12C renal"}, "HOP-92 NSCLC": {"tested_on": "HOP-92 NSCLC"}, "A498 renal": {"tested_on": "A498 renal"}, "SK-MEL-2 melanoma": {"tested_on": "SK-MEL-2 melanoma"}, "SK-MEL-5 melanoma": {"tested_on": "SK-MEL-5 melanoma"}, "UO-31 renal": {"tested_on": "UO-31 renal"}, "NCI-H522 lung": {"tested_on": "NCI-H522 lung"}, "MALME-3M melanoma": {"tested_on": "MALME-3M melanoma"}, "K-562 leukemia": {"tested_on": "K-562 leukemia"}, "KM12 colon": {"tested_on": "KM12 colon"}, "LOX IMVI melanoma": {"tested_on": "LOX IMVI melanoma"}, "HT29 colon": {"tested_on": "HT29 colon"}, "NCI/ADR-RES ovarian": {"tested_on": "NCI/ADR-RES ovarian"}, "KM20L2 colon": {"tested_on": "KM20L2 colon"}, "SF-539 CNS": {"tested_on": "SF-539 CNS"}, "M19-MEL melanoma": {"tested_on": "M19-MEL melanoma"}, "OVCAR-5 ovarian": {"tested_on": "OVCAR-5 ovarian"}, "OVCAR-8 ovarian": {"tested_on": "OVCAR-8 ovarian"}, "MOLT-4 leukemia": {"tested_on": "MOLT-4 leukemia"}, "MCF7 breast": {"tested_on": "MCF7 breast"}, "HCT-15 colon": {"tested_on": "HCT-15 colon"}, "SNB-19 CNS": {"tested_on": "SNB-19 CNS"}, "U251 CNS": {"tested_on": "U251 CNS"}, "CAKI-1 renal": {"tested_on": "CAKI-1 renal"}, "SF-268 CNS": {"tested_on": "SF-268 CNS"}, "SK-MEL-28 melanoma": {"tested_on": "SK-MEL-28 melanoma"}, "HCC-2998 colon": {"tested_on": "HCC-2998 colon"}, "OVCAR-3 ovarian": {"tested_on": "OVCAR-3 ovarian"}, "SK-OV-3 ovarian": {"tested_on": "SK-OV-3 ovarian"}, "SF-295 CNS": {"tested_on": "SF-295 CNS"}, "IGROV1 ovarian": {"tested_on": "IGROV1 ovarian"}, "NCI-H226 lung": {"tested_on": "NCI-H226 lung"}, "HOP-18 NSCLC": {"tested_on": "HOP-18 NSCLC"}, "HCT-116 colon": {"tested_on": "HCT-116 colon"}, "RXF 393 renal": {"tested_on": "RXF 393 renal"}, "DMS 114 small cell lung": {"tested_on": "DMS 114 small cell lung"}}, "note": "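In this assay, cells in 96-well plates receive the compound at five concentrations for 48 hours. Endpoints are linearly interpolated between the surrounding concentrations. TGI denotes the concentration required for complete inhibition of growth.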", "data": [{"smiles": "CN1C(=O)c2ccccc2NC(=O)c2cnn(C)c21", "values": [{"measurement": "TGI", "setting": "SN12K1 renal", "value": "> 100", "unit": "µM"}, {"measurement": "TGI", "setting": "P388/ADR leukemia", "value": "> 100", "unit": "µM"}, {"measurement": "TGI", "setting": "SW-620 colon", "value": "> 100", "unit": "µM"}, {"measurement": "TGI", "setting": "HL-60(TB) leukemia", "value": "> 100", "unit": "µM"}, {"measurement": "TGI", "setting": "COLO 205 colon", "value": "> 100", "unit": "µM"}, {"measurement": "TGI", "setting": "OVCAR-4 ovarian", "value": "> 100", "unit": "µM"}, {"measurement": "TGI", "setting": "DLD-1 colon", "value": "> 100", "unit": "µM"}, {"measurement": "TGI", "setting": "NCI-H23 lung", "value": "> 100", "unit": "µM"}, {"measurement": "TGI", "setting": "CCRF-CEM leukemia", "value": "> 100", "unit": "µM"}, {"measurement": "TGI", "setting": "RPMI-8226 leukemia", "value": "> 100", "unit": "µM"}, {"measurement": "TGI", "setting": "UACC-62 melanoma", "value": "> 100", "unit": "µM"}, {"measurement": "TGI", "setting": "SNB-75 CNS", "value": "> 100", "unit": "µM"}, {"measurement": "TGI", "setting": "NCI-H460 lung", "value": "> 100", "unit": "µM"}, {"measurement": "TGI", "setting": "SNB-78 CNS", "value": "> 100", "unit": "µM"}, {"measurement": "TGI", "setting": "HOP-62 NSCLC", "value": "> 100", "unit": "µM"}, {"measurement": "TGI", "setting": "UACC-257 melanoma", "value": "> 100", "unit": "µM"}, {"measurement": "TGI", "setting": "A549 NSCLC", "value": "> 100", "unit": "µM"}, {"measurement": "TGI", "setting": "XF 498 CNS", "value": "> 100", "unit": "µM"}, {"measurement": "TGI", "setting": "DMS 273 small cell lung", "value": "> 100", "unit": "µM"}, {"measurement": "TGI", "setting": "EKVX NSCLC", "value": "> 100", "unit": "µM"}, {"measurement": "TGI", "setting": "P388 leukemia", "value": "> 100", "unit": "µM"}, {"measurement": "TGI", "setting": "SN12C renal", "value": "> 100", "unit": "µM"}, {"measurement": "TGI", "setting": "HOP-92 NSCLC", "value": "> 100", "unit": "µM"}, {"measurement": "TGI", "setting": "A498 renal", "value": "> 100", "unit": "µM"}, {"measurement": "TGI", "setting": "SK-MEL-2 melanoma", "value": "> 100", "unit": "µM"}, {"measurement": "TGI", "setting": "SK-MEL-5 melanoma", "value": "> 100", "unit": "µM"}, {"measurement": "TGI", "setting": "UO-31 renal", "value": "> 100", "unit": "µM"}, {"measurement": "TGI", "setting": "NCI-H522 lung", "value": "> 100", "unit": "µM"}, {"measurement": "TGI", "setting": "MALME-3M melanoma", "value": "> 100", "unit": "µM"}, {"measurement": "TGI", "setting": "K-562 leukemia", "value": "> 100", "unit": "µM"}, {"measurement": "TGI", "setting": "KM12 colon", "value": "> 100", "unit": "µM"}, {"measurement": "TGI", "setting": "LOX IMVI melanoma", "value": "> 100", "unit": "µM"}, {"measurement": "TGI", "setting": "HT29 colon", "value": "> 100", "unit": "µM"}, {"measurement": "TGI", "setting": "NCI/ADR-RES ovarian", "value": "> 100", "unit": "µM"}, {"measurement": "TGI", "setting": "KM20L2 colon", "value": "> 100", "unit": "µM"}, {"measurement": "TGI", "setting": "SF-539 CNS", "value": "> 100", "unit": "µM"}, {"measurement": "TGI", "setting": "M19-MEL melanoma", "value": "> 100", "unit": "µM"}, {"measurement": "TGI", "setting": "OVCAR-5 ovarian", "value": "> 100", "unit": "µM"}, {"measurement": "TGI", "setting": "OVCAR-8 ovarian", "value": "> 100", "unit": "µM"}, {"measurement": "TGI", "setting": "MOLT-4 leukemia", "value": "> 100", "unit": "µM"}, {"measurement": "TGI", "setting": "MCF7 breast", "value": "> 100", "unit": "µM"}, {"measurement": "TGI", "setting": "HCT-15 colon", "value": "> 100", "unit": "µM"}, {"measurement": "TGI", "setting": "SNB-19 CNS", "value": "> 100", "unit": "µM"}, {"measurement": "TGI", "setting": "U251 CNS", "value": "> 100", "unit": "µM"}, {"measurement": "TGI", "setting": "CAKI-1 renal", "value": "> 100", "unit": "µM"}, {"measurement": "TGI", "setting": "SF-268 CNS", "value": "> 100", "unit": "µM"}, {"measurement": "TGI", "setting": "SK-MEL-28 melanoma", "value": "> 100", "unit": "µM"}, {"measurement": "TGI", "setting": "HCC-2998 colon", "value": "> 100", "unit": "µM"}, {"measurement": "TGI", "setting": "OVCAR-3 ovarian", "value": "> 100", "unit": "µM"}, {"measurement": "TGI", "setting": "SK-OV-3 ovarian", "value": "> 100", "unit": "µM"}, {"measurement": "TGI", "setting": "SF-295 CNS", "value": "> 100", "unit": "µM"}, {"measurement": "TGI", "setting": "IGROV1 ovarian", "value": "> 100", "unit": "µM"}, {"measurement": "TGI", "setting": "NCI-H226 lung", "value": "> 100", "unit": "µM"}, {"measurement": "TGI", "setting": "HOP-18 NSCLC", "value": "> 100", "unit": "µM"}, {"measurement": "TGI", "setting": "HCT-116 colon", "value": "> 57.4", "unit": "µM"}, {"measurement": "TGI", "setting": "RXF 393 renal", "value": "> 100", "unit": "µM"}, {"measurement": "TGI", "setting": "DMS 114 small cell lung", "value": "> 100", "unit": "µM"}]}]}
